Laboratory results: US20250325498A1, “8-OHdG CONCENTRATION DECREASE ACCELERATOR, MALONDIALDEHYDE (MDA) CONCENTRATION DECREASE ACCELERATOR, ZIP4 CONCENTRATION INCREASE ACCELERATOR, OR SERUM ZINC CONCENTRATION INCREASE ACCELERATOR FOR JEJUNUM” (WATANABE OYSTER LABORATORY, CO., LTD., priority 2022, published 2025)

Experiments:
Type in all cases: in vivo, rat
8-OHdG = experiment: Jejunal 8-OHdG concentration in rats fed a low-zinc diet; settings: male Slc/SD rats, low-zinc diet 7 days, gavage on days 5 and 6 (0.5 mL/100 g B.W.), organs harvested 24 hours after day 6 dose; low-zinc diet group 9.31±0.29, standard diet group 6.82±0.56
Experimental: (§1) Male Slc/SD rats (4 weeks old) were used as experimental animals. (Grouping and Diet)
(§2) The rats were divided into the following groups, and the diets were as follows.
(§3) Low-zinc diet group (n=6): Free intake of a low-zinc diet (The concentration of zinc in the low-zinc diet: 3.9 mg zinc/kg diet) Note that the zinc concentration of the low-zinc diet is assumed to be 2.5 mg zinc/kg diet to 10 mg zinc/kg diet.)
(§4) From the start date of the regular breeding, the standard diet was fed to the standard diet group, and the low-zinc diet was fed to four groups including the low-zinc diet group, the low-zinc diet+precipitation fraction group, the low-zinc diet+supernatant fraction group, and the low-zinc diet+synthetic DHMBA group. They were fed by free intake. On days 5 and 6, 0.5% methyl cellulose solution was given to the standard diet group and the low-zinc diet group by gavage administration. The Pacific oyster extraction supernatant fraction was given to the low-zinc diet+supernatant fraction group by gavage administration. The Pacific oyster extraction precipitation fraction was given to the low-zinc diet+precipitation fraction group by gavage administration. The synthetic DHMBA was given to the low-zinc diet+synthetic DHMBA group by gavage administration. […]
(§5) The jejunal SOD concentration, MDA concentration, 8-OHdG concentration, ZIP4 concentration, and serum zinc concentration were measured. […]

MDA = experiment: Jejunal MDA concentration in rats fed a low-zinc diet; settings: male Slc/SD rats, gavage on days 5 and 6, result in words, low-zinc diet group 6.67±0.47, standard diet group 4.53±0.26 mg/g of jejunum
Experimental: as §1, §2, §3, §4, §5

ZIP4 = experiment: Jejunal ZIP4 concentration in rats fed a low-zinc diet; settings: male Slc/SD rats, low-zinc diet 7 days, gavage on days 5 and 6, organs harvested 24 hours after day 6 dose; low-zinc diet group 4.38±0.33, standard diet group 8.89±0.71
Experimental: as §1, §2, §3, §4, §5

[1] = Serum zinc concentration in rats fed a low-zinc diet; settings: male Slc/SD rats, gavage on days 5 and 6, result in words
Experimental: as §1, §2, §3, §4, §5

## COc1c(O)cc(CO)cc1O [synthetic DHMBA, 3,5-dihydroxy-4-methoxybenzyl alcohol]
8-OHdG
  jejunal 8-OHdG concentration: 7.81±0.49 ng/g of jejunum
MDA
  jejunal MDA concentration compared with low-zinc diet group: decrease in MDA
ZIP4
  jejunal ZIP4 concentration: 6.44 ± 0.76 pg/mg
[1]
  serum zinc concentration compared with low-zinc diet group: significantly higher
